These results are taken from US11179348B2, “Combination comprising pterostilbene for the treatment of cancer” (FUNDACIÓN UNIVERSIDAD CATÓLICA DE VALENCIA SAN VICENTE …, priority 2015, dated 2021).

For assay [1], the system named is MDA-MB-231 breast adenocarcinoma. As to the kind of experiment: In vivo growth of MDA-MB-231 breast cancer xenografts. On the set-up: species or system human. The settings on record: MDA-MB-231, day 35.
Assay [2] has as its system MCF-7 cells. As to the kind of experiment: GSH levels and glutathione- and oxidative stress-related enzyme activities in MCF-7 cells growing in vivo. Also on record: species or system human. As to conditions: MCF-7, in vivo Pter, day 28. The protocol: To measure enzyme activity, isolated tumor cells were homogenized in 0.1 M phosphate buffer (pH 7.2) at 4° C. GCL and GSS activities were measured as described previously (Obrador, E. et al. Hepatology 35, 74-81 (2002)). GPX (selenium dependent) activity was measured as described by Flohé and Gunzler (Flohe, L. & Gunzler, W. A. Methods Enzymol 105, 114-121 (1984)) using H2O2 as a substrate. GSR activity was determined as described by Akerboom and Sies (Akerboom, T. P. et al, Bull Eur Physiopathol Respir 17 Suppl, 221-227 (1981)). GGT activity was measured as described previously (Obrador, E. et al. Hepatology 35, 74-81 (2002)). GST activity was measured using an assay kit from Sigma. TXNRD activity, defined by the concentration of sodium-lipoate (disulfide) reduced to dehydrolipoate (dithiol) per milligram protein, was measured as previously described (Javvadi, P. et al. Cancer Res 70, 1941-1950 (2010)). SOD activity was measured as described by Flohé and Otting (Flohe, L. & Otting, F. Methods Enzymol 105, 93-104 (1984).) using 2 mM cyanide in the assay medium to distinguish mangano-type enzyme (SOD2) from the cuprozinc type (SOD1). CAT activity was analyzed as described by Aebi (Aebi, H. Methods Enzymol 105, 121-126 (1984)). NOX activity was measured by chemiluminescence following the methodology of Wind et al. (Wind, S. et al. Comparative pharmacology of chemically distinct NADPH oxidase inhibitors. Br J Pharmacol 161, 885-898 (2010)). Protein concentration was determined with the Pierce BCA protein assay (Fisher Scientific, Waltham, Mass.).
GSH, GSSG, NADP^+ and NADPH Determination.
GSH and GSSG were determined, following procedures previously described (Obrador, E. et al. PLoS One 9, e96466 (2014)), by LC/MS using the same equipment described above for pterostilbene determination. Cell processing was performed according to published methodology, where rapid N-ethylmaleimide derivatization was used to prevent GSH auto-oxidation (Asensi, M. et al. Anal Biochem 217, 323-328 (1994)). NADP^+ and NADPH were quantitated using an assay kit from Sigma (St. Louis, Mo.).
Isolation of Tumor Cells from Mouse Xenografts Using Enzymatic Digestion and a double Ficoll gradient.
To maximize the amount of isolated cells, avoiding the use of RFP-transfected cells and subsequent laser microdissection, an alternative methodology was set up. To maximize cell yield and viability the following combination of enzymes was used: collagenase III (200 U/ml; Sigma-Aldrich), DNase I (200 U/ml; Sigma-Aldrich) and trypsin (5 mg/ml; Invitrogen), and a non-enzymatic dissociation buffer (NEDB, Invitrogen). Briefly, mice were killed, and tumors were removed (avoiding skin, muscle and fat) into cold culture media and processed immediately. The tumors were minced into 1-3 mm fragments, which were then incubated with the dissociation solution (see above) for 30 min at 37° C. The tumor fragments were mixed up and down every 10 min using a […] micropipette with a tip cut to a diameter adapted to tissue fragment size. After each incubation period, the fragments were filtered through a […] nylon mesh cell strainer (BD Biosciences, San Diego, Calif., USA). The released cells were centrifuged at 1200 r.p.m. for 2 min and stored in cold CO2-independent medium with 30% FCS at […]. Fresh dissociation solution was added to the remaining tissue fragments for 30 min. Dissociation was stopped when no additional cells were released. The fragments were pushed through a sieve and all cells from all incubation periods were pooled and counted.
The dissociated cells were layered onto a double Ficoll gradient (Histopaque; Sigma-Aldrich; densities 1.077 and 1.119) and spun at 700 g for 30 min at room temperature. Cells removed from both interfaces were pooled and washed two times in CO2-independent medium and stored at 4° C. Debris and red blood cell elimination was improved with the dual-density gradient. […]

Assay [3] deals with human breast, lung, liver, prostate, ovarian, and colorectal cancer cell lines. As to the kind of experiment: Effect of Pter on growth or viability in vitro of breast, lung, liver, prostate, ovarian and colorectal tumor cell lines. In kind it is cell-based. As to conditions: any of the tumor cell lines used (FIG. 15); 15 μM Pter×60 min every 24 h. From the text:
FIG. 15. In vivo effect of Pter on human breast, lung, liver, prostate, ovarian, and colorectal cancer growth. […] For the lower and maximum Pter dose used, in each case, only the endpoint of the treatment period is shown.
Human A2058, MeWo and MelJuso melanoma cells, and mouse AtT-20 pituitary corticotroph tumor cells were from the American Type Culture Collection (ATCC). Human HEMa-LP epidermal melanocytes were from Life Technologies (Grand Island, N.Y.). Human MDA-MB-231 (triple negative: ER−, PR−, HER2−) and MCF-7 (ER+, PR+, HER2−) breast adenocarcinoma, A549 lung adenocarcinoma (NSCLC), HepG2 hepatocellular carcinoma, LNCaP (AR+) and PC-3 (AR−) prostate adenocarcinoma, SK-OV-3 epithelial ovarian carcinoma, and HT-29 and Caco-2 colorectal carcinoma cells were from the American Type Culture Collection. Cells were grown in Dulbecco's modified Eagle's medium (DMEM) (Invitrogen, San Diego, Calif.), pH 7.4, supplemented with 10% heat-inactivated FCS (Biochrom KG, Berlin, Germany), 100 units/ml penicillin and 100 μg/ml streptomycin. […] Cell numbers were determined using a Coulter Counter (Coulter Electronic Inc., Miami, Fla.). […] Cellular viability was assessed as previously reported (Mena, S. et al. Clin Cancer Res 13, 2658-2666 (2007)), by measuring trypan blue exclusion and leakage of lactate dehydrogenase activity.

In assay [4] the test system is SK-OV-3 epithelial ovarian carcinoma. The assay is described as follows: In vivo growth of SK-OV-3 ovarian cancer xenografts. Also on record: species or system human. As to conditions: SK-OV-3, day 49.
In assay [5] the test system is HT-29 colorectal carcinoma. As to the kind of experiment: In vivo growth of HT-29 colorectal cancer xenografts. The settings on record: HT-29, day 21. On the set-up: species or system human.
The test system of assay [6] is AsPC-1 pancreatic cancer. The assay is described as follows: In vivo growth of AsPC-1 pancreatic cancer xenografts. Also on record: species or system human. The settings on record: AsPC-1-RFP; 28 days after inoculation; Pter and/or CRC.

Marks after values point to notes of the source that are not given here.

With `COc1cc(/C=C/c2ccc(O)cc2)cc(OC)c1` [Pter, trans-3,5-dimethoxy-4′-hydroxystilbene], the Tumor vol. in assay [1] was 266 ± 89* mm^3. Moreover, in assay [2], the CAT stood at 0.5 ± 0.2 mU/10^6 cells, the GCL is reported as 166 ± 34 mU/10^6 cells, the GSH was determined as 30.6 ± 4.2 nmol/10^6 cells and the GSS is given as 25.2 ± 5.6 mU/10^6 cells. In assay [2], the GSSG was found to be 0.3 ± 0.1 nmol/10^6 cells, the SOD1 worked out at 1.0 ± 0.08 U/10^6 cells and the SOD2 is listed as 0.12 ± 0.05 U/10^6 cells. The “cell growth or viability in vitro” value in assay [3] was “did not affect”. In addition, in assay [4], the Tumor vol. is 214 ± 83* mm^3. For the same molecule, the Tumor vol. in assay [5] came out at 758 ± 214 mm^3. The Tumor vol. in assay [6] is given as 523 ± 168* mm^3.
